Data: patent publication US11667602B2, “Compounds and their use” (AstraZeneca AB, priority 2020, dated 2023)
pEC50: −log10 of the molar value. In brackets after ≈: the same amount, converted by molar mass.

What was measured:
[1] = Human Liver Microsomal Stability (Test C); type: in vitro ADME; conditions: for microsomal CLint: human, liver microsomes
How it was run: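 CLint (μl/min/mg protein) derived from compound depletion in human liver microsomes following a published standardized early-DMPK protocol; replicate determinations given as arithmetic mean.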

human RXFP1 = target: T1, human RXFP1 (Homo sapiens, UniProt Q9HBX9); experiment: RXFP1 Hu cAMP (Test A); type: cell-based; set-up: expressed in transfected cells; host or cells: Jump-In T-REx CHO-K1 cells (ThermoFisher), induced with 10 ng/ml doxycycline for 24 h; conditions: RXFP1 Hu cAMP; for pEC50: read-out: Test A EC50
T1 sequence (Q9HBX9 1-757): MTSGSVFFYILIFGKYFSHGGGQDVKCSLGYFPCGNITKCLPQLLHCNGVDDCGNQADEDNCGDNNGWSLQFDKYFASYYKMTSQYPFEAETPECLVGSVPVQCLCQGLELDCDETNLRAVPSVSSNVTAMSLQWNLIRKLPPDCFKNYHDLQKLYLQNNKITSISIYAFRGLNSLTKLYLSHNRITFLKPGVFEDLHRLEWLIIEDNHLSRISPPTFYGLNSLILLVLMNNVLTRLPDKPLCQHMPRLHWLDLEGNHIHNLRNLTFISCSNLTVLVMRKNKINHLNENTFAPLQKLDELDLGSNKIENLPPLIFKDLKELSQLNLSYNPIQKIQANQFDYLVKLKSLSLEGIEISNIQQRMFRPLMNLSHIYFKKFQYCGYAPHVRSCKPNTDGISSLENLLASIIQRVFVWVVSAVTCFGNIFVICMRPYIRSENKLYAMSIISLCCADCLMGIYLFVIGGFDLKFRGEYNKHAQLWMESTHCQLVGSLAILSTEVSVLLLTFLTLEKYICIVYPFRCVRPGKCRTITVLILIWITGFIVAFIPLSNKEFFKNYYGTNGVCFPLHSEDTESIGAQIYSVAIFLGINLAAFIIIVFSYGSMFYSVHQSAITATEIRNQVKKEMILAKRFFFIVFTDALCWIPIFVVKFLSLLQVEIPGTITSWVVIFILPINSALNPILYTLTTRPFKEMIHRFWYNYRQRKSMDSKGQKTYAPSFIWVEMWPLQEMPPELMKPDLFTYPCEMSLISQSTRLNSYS
How it was run: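 Competitive HTRF cAMP readout (2 h, room temperature) in CHO-K1 cells stably expressing human RXFP1, induced with 10 ng/ml doxycycline for 24 h; IBMX 0.5 mM final.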

[2] = Human Hepatocyte Stability (Test D); type: in vitro ADME; conditions: geometric mean if run multiple times; for hepatocyte CLint at 1 µM: human, cryopreserved pooled human hepatocytes (LiverPool 10-Donor)
Method: Human Hepatocyte Stability (Test D)
The metabolic stability of compounds in human hepatocytes was assessed using the following protocol:
1. Prepare 10 mM stock solutions of compound and control compounds in appropriate solvent (DMSO). Place incubation medium (L-15 Medium) in a 37° C. water bath, and allow warming for at least 15 minutes prior to use.
2. Add 80 μL of acetonitrile to each well of the 96-well deep well plate (“Quenching plate”).
3. In a new 96-well plate, dilute the 10 mM test compounds and the control compounds to 100 μM by combining 198 μL of acetonitrile and 2 μL of 10 mM stock solution.
4. Remove a vial of cryopreserved (less than −150° C.) human hepatocytes (LiverPool™ 10-Donor Human hepatocytes obtained from Bioreclamation IVT (Product No. S01205)) from storage, ensuring that vials remain at cryogenic temperatures until thawing process ensues. As quickly as possible, thaw the cells by placing the vial in a 37° C. water bath and gently shaking the vials. Vials should remain in water bath until all ice crystals have dissolved and are no longer visible. After thawing is complete, spray vial with 70% ethanol, transfer the vial to a bio-safety cabinet.
5. Open the vial and pour the contents into the 50 mL conical tube containing thawing medium. Place the 50 mL conical tube into a centrifuge and spin at 100 g for 10 minutes (room temperature).
6. Using Cellometer® Vision, count cells and determine the viable cell density. Cells with poor viability (<80% viability) are not acceptable for use.
7. Transfer 247.5 μL of hepatocytes into each well of a 96-well cell incubation plate. Place the plate on Eppendorf Thermomixer Comfort plate shaker to allow the hepatocytes to warm for 10 minutes.
8. Add 2.5 μL of 100 μM test compound or control compounds into an incubation well containing cells to initiate the reaction.
9. Incubate the plate at 37° C. and 900 rpm on an Eppendorf Thermomixer Comfort plate shaker.
10. Centrifuge the quenching plates for 20 minutes at 4,000 rpm. Transfer 30 μL of supernatant of each compound into a 96-well analysis plate. 4 compounds are pooled together into one cassette. Then dilute the pooled sample by adding of 180 μl of pure water. All incubations are performed in singlicate.
All calculations were carried out using Microsoft Excel. Peak areas were determined from extracted ion chromatograms. In vitro intrinsic clearance (in vitro Clint, in μL/min/10^6 cells) of parent compound was determined by regression analysis of the Ln percent parent disappearance vs. time curve. The in vitro intrinsic clearance (in vitro Clint, in μL/min/10^6 cells) reported in Table 36, and was determined from the slope value using the following equation: in vitro Clint=kV/N
V=incubation volume (0.25 mL);
N=number of hepatocytes per well (0.25×10^6 cells)
Where the assay was run multiple times for the same compound, the geometric mean is reported.

[3] = Rat Hepatocyte Stability (Test E); type: in vitro ADME; conditions: geometric mean if run multiple times; for hepatocyte CLint: rat, hepatocytes
How it was run: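 Intrinsic clearance in rat hepatocytes, expressed as μl/min/10^6 cells, following the literature integrated DMPK panel method. Repeat determinations combined as geometric mean.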

Solubility (Test F) = type: physicochemical; conditions: arithmetic mean if run multiple times
Method: The assay was conducted according to the Solubility Assay described in pages 164-167 of Wernevik, J. et al., “A Fully Integrated Assay Panel for Early Drug Metabolism and Pharmacokinetics Profiling”, Assay and Drug Development Technologies, 2020, 18(4), 157-179. Data are reported in Table 36 as solubility ([…]. Where the assay was run multiple times for the same compound, the arithmetic mean is reported.

[4] = Human Plasma Protein Binding (Test B); type: in vitro ADME; conditions: fraction unbound (fu)
How it was run: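 Values given as % free (fu) in human plasma, using the method of Wernevik et al. (2020). For compounds tested more than once, the arithmetic mean is given.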

| SMILES | microsomal CLint [1] [µL/min/mg] | Test A Sinf (human RXFP1) [%] | pEC50 (human RXFP1) | hepatocyte CLint at 1 µM [2] [µL/min/1e6 cells] | hepatocyte CLint [3] [µL/min/1e6 cells] | solubility (Solubility (Test F)) [µM] | Test C Human Liver Microsomal Stability Clint ([1]; human liver microsomes) [µL/min/mg] | Test D Human Hepatocyte Stability Clint ([2]; human hepatocytes) [μL/min/10^6 cells] | Test E Rat Hepatocyte Stability Clint ([3]; rat hepatocytes) [μL/min/10^6 cells] | Test B Human Plasma Protein Binding (% free) [4] [% free] |
| --- | --- | --- | --- | --- | --- | --- | --- | --- | --- | --- |
| COc1cc(F)c(O[C@H]2CC[C@@](C)(C(=O)O)CC2)cc1C(=O)N[C@H]1[C@@H]2CC[C@@H](C2)[C@H]1C(=O)Nc1ccc(F)c(S(F)(F)(F)(F)F)c1 [Example 206, (1R,4s)-4-(2-Fluoro-5-(((1R,2S,3R,4S)-3-((4-fluoro-3-(pentafluoro-λ6-sulfaneyl)phenyl)carbamoyl)bicyclo[2.2.1]heptan-2-yl)carbamoyl)-4-methoxyphenoxy)-1-methylcyclohexane-1-carboxylic acid] | 42 | 99 | < 6.82 | 49 | 14 | 35 (≈ 23.9 µg/mL) |  |  |  |  |
| COc1cc(F)c(O[C@H]2CC[C@@](C)(C(=O)O)CC2)cc1C(=O)N[C@@H]1CCC[C@@H]1C(=O)Nc1cccc(S(=O)(=O)C(F)(F)F)c1 [Example 351] | 64 | 109 | 7.74 | 15 | 46 | 590 (≈ 380 µg/mL) |  |  |  |  |
| COc1cc(F)c(-c2ccc(CCC(=O)O)cn2)cc1C(=O)N[C@@H]1[C@H]2CC[C@H](C2)[C@@H]1C(=O)Nc1cccc(S(=O)(=O)C(F)(F)F)c1 [Example 242] | 110 | 109 | 6.70 | 26 | 30 | 900 (≈ 597 µg/mL) |  |  |  |  |
| COc1cc(F)c(-c2cccc(CC(=O)O)c2)cc1C(=O)N[C@@H]1CCC[C@@H]1C(=O)Nc1cccc(S(=O)(=O)C(F)(F)F)c1 [Example 318] | 13 | 89 | 6.22 |  | 37 | 710 (≈ 442 µg/mL) |  |  |  | 0.55 |
| COc1cc(F)c(OCCCCC(=O)O)cc1C(=O)N[C@H]1[C@@H](C(=O)Nc2cccc(S(=O)(=O)C(F)(F)F)c2)[C@@H]2C=C[C@H]1C2 (racemic) [Example 451] | 15 | 127 | 6.51 |  | 68 | 700 (≈ 440 µg/mL) |  |  |  | 0.93 |
| COc1cc(C#N)c(O[C@H]2CC[C@@](C)(C(=O)O)CC2)cc1C(=O)N[C@@H]1[C@H]2CC[C@H](C2)[C@@H]1C(=O)NC1(C)CC1 [Example 100] | < 3 | 100 | < 5.34 |  | 9.6 | 920 (≈ 482 µg/mL) |  |  |  | 30 |
| COc1cc(F)c(O[C@H]2CC[C@@](C)(C(=O)O)CC2)cc1C(=O)Nc1cc2ccccc2cc1C(=O)NCC1(C)CCC1 [Example 215, (1s,4s)-4-(2-Fluoro-4-methoxy-5-((3-(((1-methylcyclobutyl)methyl)carbamoyl)naphthalen-2-yl)carbamoyl)phenoxy)-1-methylcyclohexane-1-carboxylic acid] | < 3 | 143 | 6.70 |  | 20 | < 0.23 |  |  |  | 0.20 |

The remaining lines, values ahead:

| microsomal CLint [1] [µL/min/mg] | Test A Sinf (human RXFP1) [%] | pEC50 (human RXFP1) | hepatocyte CLint at 1 µM [2] [µL/min/1e6 cells] | hepatocyte CLint [3] [µL/min/1e6 cells] | solubility (Solubility (Test F)) [µM] | Test C Human Liver Microsomal Stability Clint ([1]; human liver microsomes) [µL/min/mg] | Test D Human Hepatocyte Stability Clint ([2]; human hepatocytes) [μL/min/10^6 cells] | Test E Rat Hepatocyte Stability Clint ([3]; rat hepatocytes) [μL/min/10^6 cells] | Test B Human Plasma Protein Binding (% free) [4] [% free] | SMILES |
| --- | --- | --- | --- | --- | --- | --- | --- | --- | --- | --- |
| 12 | 99 | 5.92 | 6.6 | 77 | 920 (≈ 475 µg/mL) |  |  |  |  | COc1cc(F)c(O[C@H]2CC[C@@H](C(=O)O)CC2)cc1C(=O)N[C@@H]1[C@H]2CC[C@H](C2)[C@@H]1C(=O)NCC1(C)CC1 [Example 198] |
| 32 | 100 | 6.23 | 3.7 | 15 | 55 (≈ 29.3 µg/mL) |  |  |  |  | COc1cc(F)c(O[C@H]2CC[C@@H](C(=O)O)CC2)cc1C(=O)N[C@@H]1[C@H]2CC[C@H](C2)[C@@H]1C(=O)N[C@H](C)C(C)(C)C [Example 200] |
| 26 | 100 | 4.68 | 2.6 | 20 | 1000 (≈ 533 µg/mL) |  |  |  |  | COc1cc(F)c(O[C@H]2CC[C@@H](C(=O)O)CC2)cc1C(=O)N[C@@H]1[C@H]2CC[C@H](C2)[C@@H]1C(=O)N[C@@H](C)C(C)(C)C [Example 199] |
| 14 | 102 |  | 5.6 | 57 | 890 (≈ 462 µg/mL) |  |  |  |  | CCC(C)CNC(=O)C1C2CCC(C2)C1NC(=O)c1cc(OC2CCC(C(=O)O)CC2)c(F)cc1OC (single isomer, unassigned) [Example 202, (1S,4s)-4-(2-Fluoro-4-methoxy-5-(((1S,2R,3S,4R)-3-(((R*)-2-methylbutyl)carbamoyl)bicyclo[2.2.1]heptan-2-yl)carbamoyl)phenoxy)cyclohexane-1-carboxylic acid] |
|  | 118 |  |  |  | 1000 (≈ 519 µg/mL) | 19 | 5 | 34 |  | CCC(C)CNC(=O)C1C2CCC(C2)C1NC(=O)c1cc(OC2CCC(C(=O)O)CC2)c(F)cc1OC (single isomer, unassigned) [Example 203, (1S,4s)-4-(2-Fluoro-4-methoxy-5-(((1S,2R,3S,4R)-3-(((R*)-2-methylbutyl)carbamoyl)bicyclo[2.2.1]heptan-2-yl)carbamoyl)phenoxy)cyclohexane-1-carboxylic acid] |
| 54 | 114 | 7.49 |  | 41 | 330 (≈ 191 µg/mL) |  |  |  | 2.5 | COc1cc(C#N)c(O[C@H]2CC[C@@](C)(C(=O)O)CC2)cc1C(=O)N[C@@H]1[C@H]2CC[C@H](C2)[C@@H]1C(=O)NCC1CCCCCC1 [Example 82] |
